For one assay, the target named is T1, STAT6 (Homo sapiens, UniProt P42226).
T1 construct: stably transfected HaCaT keratinocyte cell line, which expresses NanoLuc luciferase reporter gene under the transcriptional control of the STAT6 responsive promoter; endogenous in cells; host or cells: HaCaT keratinocyte reporter cell line (stably transfected with a NanoLuc reporter)
T1 sequence (P42226 1-847): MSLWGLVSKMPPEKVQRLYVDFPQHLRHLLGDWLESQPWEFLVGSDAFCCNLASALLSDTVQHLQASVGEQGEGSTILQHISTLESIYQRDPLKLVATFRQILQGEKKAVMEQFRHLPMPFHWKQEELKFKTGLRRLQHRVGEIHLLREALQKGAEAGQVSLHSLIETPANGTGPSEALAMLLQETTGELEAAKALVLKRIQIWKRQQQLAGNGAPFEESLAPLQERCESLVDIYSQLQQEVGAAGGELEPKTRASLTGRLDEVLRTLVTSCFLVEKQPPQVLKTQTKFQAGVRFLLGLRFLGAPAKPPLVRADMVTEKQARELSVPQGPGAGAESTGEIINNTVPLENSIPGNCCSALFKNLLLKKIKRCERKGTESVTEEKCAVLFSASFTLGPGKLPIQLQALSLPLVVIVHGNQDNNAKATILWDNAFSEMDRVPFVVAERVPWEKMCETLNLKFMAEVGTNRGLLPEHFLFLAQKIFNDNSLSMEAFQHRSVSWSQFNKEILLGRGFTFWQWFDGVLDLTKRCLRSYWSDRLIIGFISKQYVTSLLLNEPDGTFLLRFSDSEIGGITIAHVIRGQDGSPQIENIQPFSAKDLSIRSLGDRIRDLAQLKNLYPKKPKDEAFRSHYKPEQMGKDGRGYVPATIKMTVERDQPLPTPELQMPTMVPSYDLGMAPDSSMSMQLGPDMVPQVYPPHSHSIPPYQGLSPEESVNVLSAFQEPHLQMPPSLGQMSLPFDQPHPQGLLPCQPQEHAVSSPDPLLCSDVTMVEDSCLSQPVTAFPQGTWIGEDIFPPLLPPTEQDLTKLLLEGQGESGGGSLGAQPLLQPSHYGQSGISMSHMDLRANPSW
The experiment in a line: STAT6 Reporter Luciferase Assay (IL-13 stimulated HaCaT keratinocyte NanoLuc reporter cells). Format: cell-based. Conditions: IL-13 stimulated HaCaT STAT6 NanoLuc reporter cells; read-out: Reporter EC50. In a few lines:
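HaCaT IL-13Ra2-promoter NanoLuc reporter; cpd 2 h 37 °C in DMEM/2% HI FBS; IL-13 0.12 nM final, 4 h; Nano-Glo luminescence.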

Assay [1] deals with CCL17 secretion in peripheral human whole blood. Nature of the assay: Human Whole Blood (HWB) CCL17 TR-FRET Assay (IL-13 stimulated CCL17 secretion). Format: cell-based. Conditions: Homo sapiens, 48 h, human whole blood, 10 ng/mL IL13, 48 hours. In a few lines: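 Heparinized peripheral human whole blood was preincubated with compound (11-point, 3-fold series, duplicate) for 2 h at 37 °C, then stimulated with IL-13 at 10 ng/mL final for 48 h at 37 °C. Secreted CCL17 in the serum was quantified by TR-FRET sandwich immunoassay (665/615 nm ratio, 16 h RT); IC50 derived.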
On the technique in general: In TR-FRET formats the signal depends on donor and acceptor labels being close together.

Consider `CC(C)n1nc(C(=O)NCc2ccc(NC(=O)N3CC4(CCN4)C3)cc2)c2c1[C@@H](C)CN(c1ccc(C(=O)N(C)C)cc1)C2` [Example 621, (S)-N-(4-(1,6-diazaspiro[3.3]heptane-6-carboxamido)benzyl)-5-(4-(dimethylcarbamoyl)phenyl)-1-isopropyl-7-methyl-4,5,6,7-tetrahydro-1H-pyrazolo[4,3-c]pyridine-3-carboxamide], for which the half-maximal effective concentration (EC50) at STAT6 was found to be 7 nM. Also, the IC50 in assay [1] was found to be 31 nM.
For `CC(C)n1nc(C(=O)NCc2ccc(NC(=O)N3CCC4(CCCNC4)CC3)cc2)c2c1[C@@H](C)CN(c1ccc(C(=O)N(C)C)cc1)C2` [Example 622, (S)-N-(4-((5-(4-(dimethylcarbamoyl)phenyl)-1-isopropyl-7-methyl-4,5,6,7-tetrahydro-1H-pyrazolo[4,3-c]pyridine-3-carboxamido)methyl)phenyl)-2,9-diazaspiro[5.5]undecane-9-carboxamide], in that order: 4 nM and 16 nM.
For `CC(C)n1nc(C(=O)NCc2ccc(NC(=O)N3CCC4(CC3)CNC4)cc2)c2c1[C@@H](C)CN(c1ccc(C(=O)N(C)C)cc1)C2` [Example 623, (S)-N-(4-(2,7-diazaspiro[3.5]nonane-7-carboxamido)benzyl)-5-(4-(dimethylcarbamoyl)phenyl)-1-isopropyl-7-methyl-4,5,6,7-tetrahydro-1H-pyrazolo[4,3-c]pyridine-3-carboxamide], in that order: 13 nM and 37 nM.
For `CC(C)n1nc(C(=O)NCc2ccc(NC(=O)N3CCC(CC4CCNCC4)CC3)cc2)c2c1[C@@H](C)CN(c1ccc(C(=O)N(C)C)cc1)C2` [Example 624, (S)-5-(4-(dimethylcarbamoyl)phenyl)-1-isopropyl-7-methyl-N-(4-(4-(piperidin-4-ylmethyl)piperidine-1-carboxamido)benzyl)-4,5,6,7-tetrahydro-1H-pyrazolo[4,3-c]pyridine-3-carboxamide], in that order: 1 nM and 18 nM.
Regarding `CC(C)n1nc(C(=O)NCc2ccc(NC(=O)N3CCC4(CCNCC4)CC3)cc2)c2c1[C@@H](C)CN(c1ccc(C(=O)N(C)C)cc1)C2` [Example 625, (S)-N-(4-((5-(4-(dimethylcarbamoyl)phenyl)-1-isopropyl-7-methyl-4,5,6,7-tetrahydro-1H-pyrazolo[4,3-c]pyridine-3-carboxamido)methyl)phenyl)-3,9-diazaspiro[5.5]undecane-3-carboxamide], the EC50 on STAT6 is 10 nM. In assay [1], the midpoint of inhibition, the IC50, lay at 24 nM.
Take `CC(C)n1nc(C(=O)NCc2ccc(NC(=O)N3CC4(CCNCC4)C3)cc2)c2c1[C@@H](C)CN(c1ccc(C(=O)N(C)C)cc1)C2` [Example 626, (S)-N-(4-(2,7-diazaspiro[3.5]nonane-2-carboxamido)benzyl)-5-(4-(dimethylcarbamoyl)phenyl)-1-isopropyl-7-methyl-4,5,6,7-tetrahydro-1H-pyrazolo[4,3-c]pyridine-3-carboxamide]: at STAT6, the EC50 was found to be 38 nM. In assay [1], this compound showed an IC50 of 88 nM.
The like results for `CC(C)n1nc(C(=O)NCc2ccc(NC(=O)N3CC(N)C3)cc2)c2c1[C@@H](C)CN(c1ccc(C(=O)N(C)C)cc1)C2` [Example 627, (S)-N-(4-(3-aminoazetidine-1-carboxamido)benzyl)-5-(4-(dimethylcarbamoyl)phenyl)-1-isopropyl-7-methyl-4,5,6,7-tetrahydro-1H-pyrazolo[4,3-c]pyridine-3-carboxamide] were, in that order, 7 nM and 23 nM.
On to `CC(C)n1nc(C(=O)NCc2ccc(NC(=O)N3CCC4(CC3)CNCCO4)cc2)c2c1[C@@H](C)CN(c1ccc(C(=O)N(C)C)cc1)C2` [Example 628, (S)-N-(4-((5-(4-(dimethylcarbamoyl)phenyl)-1-isopropyl-7-methyl-4,5,6,7-tetrahydro-1H-pyrazolo[4,3-c]pyridine-3-carboxamido)methyl)phenyl)-1-oxa-4,9-diazaspiro[5.5]undecane-9-carboxamide], for which, on STAT6, the EC50 is 1 nM. For the same compound, in assay [1], the half-maximal inhibitory concentration (IC50) was found to be 4 nM.
The like results for `CC(C)n1nc(C(=O)NCc2ccc(NC(=O)N(C)C)cc2)c2c1[C@@H](C)CN(c1ccc(C(=O)N(C)CC3CN(C)C3)cc1)C2` [Example 629, (S)-N-(4-(3,3-dimethylureido)benzyl)-1-isopropyl-7-methyl-5-(4-(methyl((1-methylazetidin-3-yl)methyl)carbamoyl)phenyl)-4,5,6,7-tetrahydro-1H-pyrazolo[4,3-c]pyridine-3-carboxamide] were, in that order, 121 nM and 390 nM.
As to `CC(C)n1nc(C(=O)NCc2ccc(NC(=O)N3CCNCC3)cc2Cl)c2c1[C@@H](C)CN(c1ccc(C(=O)N(C)C)cc1)C2` [Example 630, (S)-N-(2-chloro-4-(piperazine-1-carboxamido)benzyl)-5-(4-(dimethylcarbamoyl)phenyl)-1-isopropyl-7-methyl-4,5,6,7-tetrahydro-1H-pyrazolo[4,3-c]pyridine-3-carboxamide], the EC50 at STAT6 came to 9 nM. In assay [1], this compound returned a half-inhibitory concentration (IC50) of 55 nM.
For `CC(C)n1nc(C(=O)NCc2ccc(NC(=O)N3CCN(C)CC3)cc2)c2c1[C@@H](C)CN(c1ccc(-n3nccn3)cn1)C2` [Example 631, (S)-5-(5-(2H-1,2,3-triazol-2-yl)pyridin-2-yl)-1-isopropyl-7-methyl-N-(4-(4-methylpiperazine-1-carboxamido)benzyl)-4,5,6,7-tetrahydro-1H-pyrazolo[4,3-c]pyridine-3-carboxamide], the 50% effective concentration (EC50) on STAT6 was found to be 1 nM. This compound also came in with an IC50 in assay [1] of 24 nM.
For `CC(C)n1nc(C(=O)NCc2ccc(NC(=O)N3CC4(CCN(C)CC4)C3)c(F)c2)c2c1[C@@H](C)CN(c1ccc(-n3ccccc3=O)cn1)C2` [Example 632, (S)-N-(3-fluoro-4-(7-methyl-2,7-diazaspiro[3.5]nonane-2-carboxamido)benzyl)-1-isopropyl-7-methyl-5-(2-oxo-2H-[1,3′-bipyridin]-6′-yl)-4,5,6,7-tetrahydro-1H-pyrazolo[4,3-c]pyridine-3-carboxamide], the EC50 on STAT6 was 5 nM. In assay [1], this compound registered an IC50 of 39 nM.
As to `CC(C)n1nc(C(=O)NCc2ccc(NC(=O)N3CCC4(CC3)CN(C)C4)cc2)c2c1[C@@H](C)CN(c1ccc(-n3ccccc3=O)cn1)C2` [Example 633, (S)-1-isopropyl-7-methyl-N-(4-(2-methyl-2,7-diazaspiro[3.5]nonane-7-carboxamido)benzyl)-5-(2-oxo-2H-[1,3′-bipyridin]-6′-yl)-4,5,6,7-tetrahydro-1H-pyrazolo[4,3-c]pyridine-3-carboxamide], at STAT6, the EC50 amounted to 2 nM. Also, half-maximal inhibition in assay [1] (IC50) was put at 13 nM.
As for `CC(C)n1nc(C(=O)NCc2ccc(NC(=O)N3CC4(CCN(C)CC4)C3)cc2)c2c1[C@@H](C)CN(c1ccc(-n3ccccc3=O)cn1)C2` [Example 634, (S)-1-isopropyl-7-methyl-N-(4-(7-methyl-2,7-diazaspiro[3.5]nonane-2-carboxamido)benzyl)-5-(2-oxo-2H-[1,3′-bipyridin]-6′-yl)-4,5,6,7-tetrahydro-1H-pyrazolo[4,3-c]pyridine-3-carboxamide], on STAT6, the EC50 is 4 nM. The same compound gave a concentration for half-maximal inhibition (IC50) in assay [1] of 29 nM.
For `CC(C)n1nc(C(=O)NCc2ccc(NC(=O)N(C)C)cc2)c2c1[C@@H](C)CN(c1ccc(C(=O)N(C)CC3CCN(C)CC3)cc1)C2` [Example 635, (S)-N-(4-(3,3-dimethylureido)benzyl)-1-isopropyl-7-methyl-5-(4-(methyl((1-methylpiperidin-4-yl)methyl)carbamoyl)phenyl)-4,5,6,7-tetrahydro-1H-pyrazolo[4,3-c]pyridine-3-carboxamide], in that order: 14 nM and 71 nM.
For `CC(C)n1nc(C(=O)NCc2ccc(NC(=O)N(C)C)cc2)c2c1[C@@H](C)CN(c1ccc(C(=O)N(C)CCN3CCOCC3)cc1)C2` [Example 636, (S)-N-(4-(3,3-dimethylureido)benzyl)-1-isopropyl-7-methyl-5-(4-(methyl(2-morpholinoethyl)carbamoyl)phenyl)-4,5,6,7-tetrahydro-1H-pyrazolo[4,3-c]pyridine-3-carboxamide], in that order: 3 nM and 33 nM.

One may read the EC50 as the concentration at which the effect is half-maximal. By IC50 is commonly meant the concentration that inhibits the measured activity by half. Read a high IC50 as weaker potency.

These data come from US20250320213A1, “Nitrogen-Containing Heterocyclic Compounds” (Pfizer Inc., priority 2024, published 2025).
